Bounds are passed on as bounds.

As usually defined, the melting point is the temperature of the solid-liquid transition.

Turning to `CC(C)(C)c1cc(-c2nnc(S(C)(=O)=O)s2)cc(C(C)(C)C)c1O`, the melting point was 156 °C.
In turn, `COc1ccccc1C(=O)Nc1cc(C)ccc1C#N` had a melting point of 147 to 149 °C.
For the compound `COc1cc2cc(C(N)=O)sc2cc1OC`, the melting point is 211 to 213 °C.
`CCOCc1nc2c(N)nc3ccccc3c2n1CCCCCS(N)(=O)=O` registered a melting point of 176 to 178 °C.
As for `COc1ccc(C#Cc2cc(Cl)cc3c2OC(C(F)(F)F)C(C(=O)O)=C3)cc1` (configuration not stated), the melting point is 218 to 219 °C.
For `N#Cc1ccc(NC(=S)NCc2ccccn2)cc1`, the melting point stood at 144 °C.
For `CCOC(=O)c1ccc(-c2nn(Cc3ccccc3)c3ccccc23)o1` the value was 98 to 99 °C; for `COc1cccc(C2(C#N)CCN(C(=O)CN3CCN(c4cnccn4)CC3)CC2)c1`, 108 °C.
On to `COC(=O)c1ccc(O)c(C(=O)CC(=O)c2cc(C)ccc2OC)c1`, for which the melting point lay in the range of 145 to 147 °C.
Consider `CCOC(=O)C1=C(C)NC(c2ccc(C)cc2)=C(C(=O)OCC)C1c1cccc([N+](=O)[O-])c1` (configuration not stated), for which the melting point is 149 to 150 °C.
Then `O=C(O)C1CCc2c(c3cccc(F)c3n2C(=O)c2ccccc2)C1` (configuration not stated), with 250 to 251 °C; and `OCCCc1ccc2c(c1)Cc1cc(CCCO)ccc1-2`, with 160 to 180 °C; and `CC(C)[C@H](NC(=O)N(C)Cc1csc(C2CCCC2)n1)C(=O)N[C@@H](Cc1ccccc1)C[C@H](O)[C@H](Cc1ccccc1)NC(=O)OCc1cncs1`, with 70 to 71 °C.
For the compound `CCCN(CCC)C(=O)c1n[nH]c2c(=O)[nH]c3cc(Cl)ccc3c(=O)c12`, the melting point was 270 °C.
`CCCCNC(=O)C(C)Oc1ccc(COc2ccc(Cl)cc2)cc1` (configuration not stated) yielded a melting point of 98 °C.
As for `CC(=O)OC1CCCN(C(=O)c2ccc(NC(=O)c3ccccc3C)cc2)c2ccccc21` (configuration not stated), the melting point was 193 to 194 °C.
Consider `Clc1nc2ccc(Br)cc2cc1Cc1ccccc1`, for which the melting point lay within 102 to 104 °C.
In turn, `CCNC(=O)n1nc(Oc2c(Cl)cc(C(F)(F)F)cc2Cl)c(Cl)c1C` gave a melting point of 85 to 86 °C.
In turn, `COc1ccc(C=Nc2ccccc2SCc2ncon2)cc1OC` yielded a melting point of 146 °C.
Regarding `O=C1CCC(N2C(=O)c3ccc(CNC(=O)c4ccco4)cc3C2=O)C(=O)N1` (configuration not stated), the melting point fell in the range of 180 to 182 °C.
With `CN1CCN(c2ccccc2C=CC(=O)Nc2ccc(Cl)c(Cl)c2)CC1`, the melting point lay within 192 to 193 °C.
For `CNCC1Cc2cc(-c3ccc(F)cc3)cc(F)c2O1` (configuration not stated) the value was > 250 °C; for `C#CCn1ccc(C(=O)OC)c1C=NO`, 88 to 90 °C; for `CCCCc1cccc(NC(=O)C=C(C)OC)c1`, 36 °C.
Then `COc1ccc([C@@H]2Sc3cc(Oc4ccc5c(c4)OCO5)ccc3NC(=O)[C@@H]2O)cc1`, with 188 °C.
For `CN(C)CCOC(=O)C1CCc2c([nH]c3ccc(Cl)cc23)C1` (configuration not stated) the value was 123 to 124 °C; for `CCOC(=O)c1cn(C2CC2)c2nc(N3C[C@@H](CN(CC)C(=O)C(F)(F)F)[C@@H](F)C3)c(F)cc2c1=O` (relative stereo), 150 to 153 °C.
Turning to `C=CCn1c(=O)c2[nH]c(/C=C/c3ccc(OC)c(OC)c3)nc2n(CC=C)c1=O`, the melting point is 252 °C.
Compound `CCOC(=O)CCCCOc1ccc([N+](=O)[O-])c(C=C2C(=O)NC(=O)N2C)c1` returned a melting point of 121 to 123 °C.
Then `O=C1C(c2cccc(O)c2)CCCCN1Cc1ccccc1` (configuration not stated), with 160 to 166 °C; and `Cc1ccc(-c2cc(O)c3[nH]c(=O)ccc3c2)c(C)n1`, with 276 to 277 °C; and `Nc1c(F)c(N2C[C@H](CF)[C@H](N)C2)c(F)c2c1c(=O)c(C(=O)O)cn2C1CC1` (relative stereo), with 248 to 249 °C.
Compound `CCOC(=O)CNC(=O)c1n[nH]cc1NC(=O)c1cccc(C)n1` returned a melting point of 228 to 229 °C.
The compound `CC(C)(C)OC(=O)c1cccc(O)c1` had a melting point of 94 to 96 °C.
Compound `COc1cc(CN2C(=O)C3(COc4cc5c(cc43)OCCO5)c3ccccc32)ccc1F` (configuration not stated) had a melting point of 161 to 163 °C.
In the case of `Nc1cc(F)c(F)cc1S(N)(=O)=O`, the melting point is 137 to 142 °C.
`COc1c(C)c(C)cc(C)c1C(O)(c1ccccc1)C(C)C` (configuration not stated): the melting point was in the range of 80 to 81 °C.
Consider `CC(C)Nc1cccnc1N1CCN(C(=O)c2ccc(C(=O)N(CCO)c3ccccc3)cc2)CC1`, for which the melting point is 71 to 72 °C.
Consider `Cc1ccccc1C(=O)N1CCc2nnc(Cl)cc2C1`, for which the melting point was 123 to 126 °C.
Consider `CCCCNc1cc(C(=O)O)cc(S(=O)(=O)NCCCC)c1Sc1ccc(N)cc1`, for which the melting point was 198 to 200 °C.
Turning to `S=C(Nc1ccc(Nc2ccccc2)cc1)Nc1ccc(Nc2ccccc2)cc1`, the melting point lay within 164 to 171 °C.
With `CCCNc1c2ccccc2nc2c1c(C)nn2-c1ccccn1`, the melting point lay within 121 to 122 °C.
Turning to `CN(C)Cc1ccc(/C=C/C(=O)O)cn1`, the melting point worked out at 144 °C.
`OCC=CCOc1nc(F)c(Cl)cc1Cl` yielded a melting point of 30 °C.
For the compound `CC(C)c1nc(Sc2ccc(CCC(=O)O)cc2)c(C(=O)O)n1Cc1cc2c(cc1Cl)OCO2`, the melting point turned out to be 198 °C.
Compound `O=C(O)c1ccc2cnn(C3CCCC3)c2c1` yielded a melting point of 172 to 175 °C.
In turn, `N#Cc1n[nH]cc1-c1ccc(Cl)cc1C(=O)c1ccccc1Cl` registered a melting point of 183 to 184 °C.
Compound `COc1cc(C(=O)N2CCN(C(=O)/C=C(\c3ccc(F)cc3)c3cc(OC)c(OC)c(OC)c3)CC2)cc(OC)c1OC` registered a melting point of 130 to 132 °C.
`CCCCOc1cc(C)c(NC(=O)C(C)Br)c(C)c1` (configuration not stated) showed a melting point of 132 to 134 °C.
Compound `COC(=O)c1cc(-n2cnc(Br)c2)c(C(F)(F)F)cc1[N+](=O)[O-]` yielded a melting point of 90 °C.
On to `CS(=O)(=O)N1CCN([C@@H](CNS(=O)(=O)c2ccc(OCc3ccnc(-c4ccccc4)c3)cc2)C(=O)NO)CC1`, for which the melting point was 100 °C.
Then `O=C(O)CCCCCCCCn1cc(-c2ccccc2)c(-c2ccccc2)nc1=O`, with 120 to 123 °C; and `CC(=O)c1cc2c(s1)C(C)(C)CCC2(C)C`, with 53 to 55 °C.
`CCOC(=O)/C=C/c1ccc(OCCOC)cc1Oc1ncc(Cl)cc1Cl` registered a melting point of 70.7 to 71.3 °C.
Consider `CCOC(=O)c1cc(O)cc2nc(-c3ccc(O)cc3)oc12`, for which the melting point is 305 to 307 °C.
In the case of `CC(C(=O)O)c1ccc2cc(OCc3ccc4ccccc4n3)ccc2c1` (configuration not stated), the melting point lay within 186 to 187 °C.
For the compound `CCOC(=O)N1C=CC2=NC(C)=NC(N(C)c3ccccc3)N21` (configuration not stated), the melting point was found to be 202 °C.
For `COCC(O)CN1CCN(c2cc3c(cc2F)c(=O)c(C(=O)O)c2n3CCS2)CC1` (configuration not stated) the value was 224 °C; for `N#Cc1nn(-c2c(Cl)cc(C(F)(F)F)cc2Cl)c(Br)c1S(=O)(=O)C(F)(F)F`, 136 to 137 °C.
With `COc1cc(CCc2ccc(N)nn2)cc(OC)c1OC`, the melting point is 130 to 132 °C.
Then `COc1cc(C(=O)N2Cc3ccc(C(=O)NCc4cccc(C)c4)n3Cc3ccccc32)ccc1-c1ccccc1C`, with 165 to 166 °C; and `COc1ccc2c(c1)C(c1ccccc1)C(=O)NCC2` (configuration not stated), with 155 to 170 °C; and `Cc1ccnc(NC(=O)c2nc3ccccc3[nH]2)c1`, with 262 °C.
Turning to `COc1cc(Br)nc(NC(=O)NS(=O)(=O)c2cccc3c2SCC3)n1`, the melting point lay in the range of 238 to 240 °C.
Compound `CCCc1c(O)c(C(C)=O)cc(Br)c1OCCCOc1c(C(C)=O)ccc(OCC(=O)O)c1CCC` came in with a melting point of 129 to 130 °C.
`CCOC(=O)/C=C/c1ccc(OCCc2nc(-c3cccc(C)c3)oc2C)cc1`: the melting point lay within 90 to 91 °C.
Then `O=C(CN1CCc2c([nH]c3ccccc23)C1c1ccccc1)OCc1ccccc1` (configuration not stated), with 131 to 132 °C.
`CN(C)C=Cc1cc(-n2cncn2)ncc1[N+](=O)[O-]`: the melting point fell in the range of 225 to 228 °C.
As to `Cc1cccc2c1C(=O)C([N+](=O)[O-])C2=O` (configuration not stated), the melting point lay within 108 to 109 °C.
`CC(F)C1C(=O)NC1CC(=O)OCc1ccccc1` (mixture of isomers) yielded a melting point of 40 to 43 °C.
The compound `CN(C)CC=CC(=O)Nc1cc2c(Nc3cc(Cl)c(Cl)cc3F)ncnc2cc1OCCOCCOCCOCCF` gave a melting point of 119 to 120 °C.
As to `CC(C)(C)n1nc(Cc2ccccc2)c(C#N)c1N`, the melting point was in the range of 106 to 110 °C.
In the case of `CCCOc1cc2c(cc1C1CCCc3oc(/C=C/C(=O)O)cc31)C(C)(C)CCC2(C)C` (configuration not stated), the melting point lay in the range of 195 to 196 °C.
Regarding `CCOC(=O)c1cn2c(n1)C=NC=C1C=CCC=C12`, the melting point lay in the range of 134 to 135 °C.
For `CCOC(=O)c1cccc(NC(=O)C2=C(C)OCCS2)c1` the value was 100 to 102 °C; for `COc1cc2c(cc1OC)CN(CCc1ccc(NC(=O)c3cccc4c(=O)c5cccc(OC)c5[nH]c34)c(C)c1)CC2`, 200 to 201 °C; for `O=C(Cn1c(-c2ccccc2)ccc(NC(=O)OCc2ccccc2)c1=O)NC(Cc1ccccc1)C(=O)C(F)(F)F` (configuration not stated), 178 to 181 °C.
Consider `COc1cc(C(=O)O)c(OC)c2ccccc12`, for which the melting point was in the range of 142 to 144 °C.
For `CCc1cc(C)cc(CC)c1C1C(=O)C2=CC(COCOC)CC2C1=O` (configuration not stated) the value was 155 to 156 °C.
Compound `COc1ccc2ccc(O)c(N=O)c2c1` gave a melting point of 122 to 124 °C.
For the compound `COc1ccccc1C(=O)N1CCCC2=C1CCc1cc(Cl)ccc12`, the melting point was 139 °C.
For `NS(=O)(=O)NCc1csc2ccccc12`, the melting point worked out at 101 °C.
Then `O=C(C=C1OC(=O)c2ccccc21)c1ccc(Cl)cc1`, with 158 to 159 °C.
Take `O=c1cc(Oc2ccccc2)c2cc(C(c3ccc(Cl)cc3)n3ccnc3)ccc2[nH]1` (configuration not stated): the melting point came to 233 °C.
`O=C(O)c1cn(O)c2ccc3[nH]c(=O)sc3c2c1=O`: the melting point is > 300 °C.
Turning to `COc1ccc(-c2ccc(C)nc2-c2ccc(OCCN3CCCC3)cc2)cc1`, the melting point was 63 to 64 °C.
`CC(C)(C)c1cc(C(C)(C)c2cc(C(C)(C)C)c(O)c(C(C)(C)C)c2)cc(C(C)(C)C)c1O` registered a melting point of 148 to 154 °C.
